ChEMBL document CHEMBL1201862, “PubChem BioAssay data set” (2004)
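Each compound was tested at five concentrations against cells in 96-well plates for 48 hours. GI50 is the concentration that inhibits growth by half.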 Active and inactive are the calls of the source. Rule as the data show it: active = GI50 up to about 1.1 µM and inactive = higher.

How the values were obtained:
Test in all cases: NCI tumour cell line growth inhibition, 48 h
786-0 = test system: 786-0
A498 = test system: A498
A549 = test system: A549
ACHN = test system: ACHN
BT-549 = test system: BT-549
CAKI-1 = test system: CAKI-1
CCRF-CEM = test system: CCRF-CEM
COLO 205 = test system: COLO 205
DU-145 = test system: DU-145
EKVX = test system: EKVX
HCC 2998 = test system: HCC 2998
HCT-116 = test system: HCT-116
HCT-15 = test system: HCT-15
HL-60 = test system: HL-60
HOP-62 = test system: HOP-62
HOP-92 = test system: HOP-92
HT-29 = test system: HT-29
Hs-578T = test system: Hs-578T
IGROV-1 = test system: IGROV-1
K562 = test system: K562
KM12 = test system: KM12
LOX IMVI = test system: LOX IMVI
M14 = test system: M14
MCF7 = test system: MCF7
MDA-MB-231 = test system: MDA-MB-231
MDA-MB-435 = test system: MDA-MB-435
MDA-N = test system: MDA-N
MOLT-4 = test system: MOLT-4
Malme-3M = test system: Malme-3M
NCI-H226 = test system: NCI-H226
NCI-H23 = test system: NCI-H23
NCI-H460 = test system: NCI-H460
NCI-H522 = test system: NCI-H522
NCI/ADR-RES = test system: NCI/ADR-RES
OVCAR-3 = test system: OVCAR-3
OVCAR-4 = test system: OVCAR-4
OVCAR-5 = test system: OVCAR-5
OVCAR-8 = test system: OVCAR-8
PC-3 = test system: PC-3
RPMI-8226 = test system: RPMI-8226
RXF 393 = test system: RXF 393
SF-268 = test system: SF-268
SF-295 = test system: SF-295
SK-MEL-28 = test system: SK-MEL-28
SK-MEL-2 = test system: SK-MEL-2
SK-MEL-5 = test system: SK-MEL-5
SK-OV-3 = test system: SK-OV-3
SN12C = test system: SN12C
SNB-19 = test system: SNB-19
SNB-75 = test system: SNB-75
SR = test system: SR
SW-620 = test system: SW-620
T47D = test system: T47D
TK-10 = test system: TK-10
U-251 = test system: U-251
UACC-257 = test system: UACC-257
UACC-62 = test system: UACC-62
UO-31 = test system: UO-31
SF-539 = test system: SF-539

For `O/N=C1\Nc2ccccc2OCc2cc(Br)c(Br)cc2COc2ccccc2N\C1=N/O`, the GI50 (786-0) was 10 µM (inactive), the GI50 (A498) was 17.5 µM (inactive) and the GI50 (A549) was 17.6 µM (inactive). For the same compound, the GI50 (ACHN) was 5.97 µM (inactive), the GI50 (BT-549) was 15.1 µM (inactive) and the GI50 (CAKI-1) was 12.9 µM (inactive). For the same compound, the GI50 (CCRF-CEM) was 4.98 µM (inactive), the GI50 (COLO 205) was 7.08 µM (inactive) and the GI50 (DU-145) was 13.6 µM (inactive). For the same compound, the GI50 (EKVX) was 15.2 µM (inactive), the GI50 (HCC 2998) was 7.71 µM (inactive) and the GI50 (HCT-116) was 6.12 µM (inactive). For the same compound, the GI50 (HCT-15) was 5.86 µM, the GI50 (HL-60) was 5.18 µM (inactive) and the GI50 (HOP-62) was 15.5 µM (inactive). The GI50 (HOP-92) was 12.6 µM (inactive), the GI50 (HT-29) was 7.85 µM (inactive) and the GI50 (Hs-578T) was 31.7 µM (inactive). The GI50 (IGROV-1) was 2.79 µM (inactive), the GI50 (K562) was 4.85 µM (inactive) and the GI50 (KM12) was 8.51 µM (inactive). For the same compound, the GI50 (LOX IMVI) was 10.1 µM (inactive), the GI50 (M14) was 21.2 µM (inactive) and the GI50 (MCF7) was 6.81 µM (inactive). For the same compound, the GI50 (MDA-MB-231) was 14.8 µM (inactive), the GI50 (MDA-MB-435) was 14.8 µM (inactive) and the GI50 (MDA-N) was 14.3 µM (inactive). The GI50 (MOLT-4) was 3.63 µM (inactive), the GI50 (Malme-3M) was 16.4 µM (inactive) and the GI50 (NCI-H226) was 21.5 µM (inactive). The GI50 (NCI-H23) was 13.8 µM (inactive), the GI50 (NCI-H460) was 13.2 µM (inactive) and the GI50 (NCI-H522) was 6.43 µM (inactive). For the same compound, the GI50 (NCI/ADR-RES) was 20.2 µM (inactive), the GI50 (OVCAR-3) was 7.21 µM (inactive) and the GI50 (OVCAR-4) was 10.7 µM (inactive). The GI50 (OVCAR-5) was 17.9 µM (inactive), the GI50 (OVCAR-8) was 10.4 µM (inactive) and the GI50 (PC-3) was 13.4 µM (inactive). For the same compound, the GI50 (RPMI-8226) was 10.8 µM (inactive), the GI50 (RXF 393) was 16.6 µM (inactive) and the GI50 (SF-268) was 8.91 µM (inactive). For the same compound, the GI50 (SF-295) was 16.5 µM (inactive), the GI50 (SK-MEL-28) was 22.6 µM (inactive) and the GI50 (SK-MEL-2) was 19.5 µM (inactive). For the same compound, the GI50 (SK-MEL-5) was 12.9 µM (inactive), the GI50 (SK-OV-3) was 17.2 µM (inactive) and the GI50 (SN12C) was 11.9 µM (inactive). The GI50 (SNB-19) was 10.7 µM (inactive), the GI50 (SNB-75) was 20.2 µM (inactive) and the GI50 (SR) was 2.06 µM (inactive). For the same compound, the GI50 (SW-620) was 11.8 µM (inactive), the GI50 (T47D) was 10.9 µM (inactive) and the GI50 (TK-10) was 25 µM (inactive). The GI50 (U-251) was 13.8 µM (inactive), the GI50 (UACC-257) was 21.8 µM (inactive) and the GI50 (UACC-62) was 15.3 µM (inactive). For the same compound, the GI50 (UO-31) was 19.1 µM (inactive).

`CCOc1cc(C2CC(c3ccc(NS(=O)(=O)c4cc([N+](=O)[O-])ccc4C)cc3)=NN2)ccc1O` (centres undefined) was tested, and the GI50 (786-0) was 20.1 µM (inactive), the GI50 (A498) was 22.3 µM (inactive) and the GI50 (A549) was 29 µM (inactive). For the same compound, the GI50 (ACHN) was 23.7 µM (inactive), the GI50 (BT-549) was 21.1 µM (inactive) and the GI50 (CAKI-1) was 29.3 µM (inactive). The GI50 (CCRF-CEM) was 30.8 µM (inactive), the GI50 (COLO 205) was 22.3 µM (inactive) and the GI50 (DU-145) was 36.6 µM (inactive). The GI50 (EKVX) was 21.4 µM (inactive), the GI50 (HCT-116) was 20.4 µM (inactive) and the GI50 (HCT-15) was 20.5 µM. The GI50 (HL-60) was 15.5 µM (inactive), the GI50 (HOP-92) was 45 µM (inactive) and the GI50 (HT-29) was 26.8 µM (inactive). The GI50 (Hs-578T) was 65 µM (inactive), the GI50 (IGROV-1) was 58.9 µM (inactive) and the GI50 (K562) was 24.5 µM (inactive). The GI50 (LOX IMVI) was 22.5 µM (inactive), the GI50 (M14) was 19 µM (inactive) and the GI50 (MCF7) was 21.5 µM (inactive). For the same compound, the GI50 (MDA-MB-231) was 25.5 µM (inactive), the GI50 (MDA-MB-435) was 28.1 µM (inactive) and the GI50 (MDA-N) was 33.2 µM (inactive). The GI50 (MOLT-4) was 17.5 µM (inactive), the GI50 (Malme-3M) was 25 µM (inactive) and the GI50 (NCI-H226) was 43 µM (inactive). The GI50 (NCI-H23) was 28 µM (inactive), the GI50 (NCI-H522) was 26.9 µM (inactive) and the GI50 (NCI/ADR-RES) was 24.2 µM (inactive). For the same compound, the GI50 (OVCAR-3) was 15.3 µM (inactive), the GI50 (OVCAR-4) was 22.8 µM (inactive) and the GI50 (OVCAR-5) was 32.1 µM (inactive). The GI50 (OVCAR-8) was 44.5 µM (inactive), the GI50 (PC-3) was 31 µM (inactive) and the GI50 (RPMI-8226) was 24.6 µM (inactive). The GI50 (RXF 393) was 18.6 µM (inactive), the GI50 (SF-268) was 45.5 µM (inactive) and the GI50 (SF-539) was 45.7 µM (inactive). The GI50 (SK-MEL-28) was 32.4 µM (inactive), the GI50 (SK-MEL-2) was 21.7 µM (inactive) and the GI50 (SK-MEL-5) was 19.2 µM (inactive). For the same compound, the GI50 (SN12C) was 20 µM (inactive), the GI50 (SNB-19) was 30.3 µM (inactive) and the GI50 (SNB-75) was 29.8 µM (inactive). For the same compound, the GI50 (SR) was 22.4 µM (inactive), the GI50 (SW-620) was 32.8 µM (inactive) and the GI50 (T47D) was 27.9 µM (inactive). The GI50 (UACC-62) was 14 µM (inactive) and the GI50 (UO-31) was 27.8 µM (inactive).

With `CC(=O)OCC12C(=O)C[C@@H](C)C3(CC(c4ccoc4)OC3=O)C1CCC(OC(C)=O)C21CO1` (some centres undefined) the GI50 (786-0) was > 100 µM (inactive), the GI50 (A498) was > 100 µM (inactive) and the GI50 (A549) was > 100 µM (inactive). The GI50 (ACHN) was > 100 µM (inactive), the GI50 (BT-549) was > 100 µM (inactive) and the GI50 (CAKI-1) was > 100 µM (inactive). For the same compound, the GI50 (COLO 205) was > 100 µM (inactive), the GI50 (DU-145) was > 100 µM (inactive) and the GI50 (HCC 2998) was > 100 µM (inactive). For the same compound, the GI50 (HCT-116) was > 100 µM (inactive), the GI50 (HCT-15) was over 100 µM and the GI50 (HL-60) was > 100 µM (inactive). For the same compound, the GI50 (HOP-62) was > 100 µM (inactive), the GI50 (HOP-92) was > 100 µM (inactive) and the GI50 (HT-29) was > 100 µM (inactive). For the same compound, the GI50 (Hs-578T) was > 100 µM (inactive), the GI50 (IGROV-1) was > 100 µM (inactive) and the GI50 (K562) was > 100 µM (inactive). The GI50 (KM12) was > 100 µM (inactive), the GI50 (LOX IMVI) was > 100 µM (inactive) and the GI50 (M14) was > 100 µM (inactive). The GI50 (MCF7) was > 100 µM (inactive), the GI50 (MDA-MB-231) was > 100 µM (inactive) and the GI50 (MDA-MB-435) was > 100 µM (inactive). The GI50 (MDA-N) was > 100 µM (inactive), the GI50 (MOLT-4) was > 100 µM (inactive) and the GI50 (Malme-3M) was > 100 µM (inactive). The GI50 (NCI-H226) was > 100 µM (inactive), the GI50 (NCI-H23) was > 100 µM (inactive) and the GI50 (NCI-H460) was > 100 µM (inactive). The GI50 (NCI-H522) was > 100 µM (inactive), the GI50 (NCI/ADR-RES) was > 100 µM (inactive) and the GI50 (OVCAR-3) was > 100 µM (inactive). For the same compound, the GI50 (OVCAR-4) was > 100 µM (inactive), the GI50 (OVCAR-5) was > 100 µM (inactive) and the GI50 (OVCAR-8) was > 100 µM (inactive). The GI50 (PC-3) was > 100 µM (inactive), the GI50 (RPMI-8226) was > 100 µM (inactive) and the GI50 (RXF 393) was 87.3 µM (inactive). The GI50 (SF-268) was > 100 µM (inactive), the GI50 (SF-295) was > 100 µM (inactive) and the GI50 (SF-539) was > 100 µM (inactive). For the same compound, the GI50 (SK-MEL-28) was > 100 µM (inactive), the GI50 (SK-MEL-2) was > 100 µM (inactive) and the GI50 (SK-MEL-5) was > 100 µM (inactive). For the same compound, the GI50 (SN12C) was > 100 µM (inactive), the GI50 (SNB-19) was > 100 µM (inactive) and the GI50 (SNB-75) was > 100 µM (inactive). For the same compound, the GI50 (SR) was > 100 µM (inactive), the GI50 (SW-620) was > 100 µM (inactive) and the GI50 (T47D) was > 100 µM (inactive). For the same compound, the GI50 (TK-10) was > 100 µM (inactive), the GI50 (U-251) was > 100 µM (inactive) and the GI50 (UACC-257) was > 100 µM (inactive). For the same compound, the GI50 (UACC-62) was > 100 µM (inactive) and the GI50 (UO-31) was > 100 µM (inactive).
